Laboratory results from PubChem BioAssay (NCI).
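Each compound was tested at five concentrations against cells in 96-well plates for 48 hours. The concentration for 50% growth inhibition is given as GI50. TGI: total growth inhibition.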

Legend:
Assay in all cases: NCI anticancer screen, dose series, 48 h
[1] = test system: SK-MEL-2 melanoma
[2] = test system: A549 NSCLC
[3] = test system: SNB-19 CNS
[4] = test system: CCRF-CEM leukemia
[5] = test system: OVCAR-3 ovarian
[6] = test system: SK-MEL-28 melanoma
[7] = test system: ACHN renal
[8] = test system: RXF 393 renal
[9] = test system: EKVX NSCLC
[10] = test system: 786-0 renal

Structure (SMILES) | TGI [1] [µM] | TGI [2] [µM] | TGI [3] [µM] | TGI [4] [µM] | TGI [5] [µM] | TGI [6] [µM] | TGI [7] [µM] | TGI [8] [µM] | TGI [9] [µM] | TGI [10] [µM] | GI50 [1] [µM] | GI50 [2] [µM] | GI50 [3] [µM] | GI50 [4] [µM] | GI50 [5] [µM] | GI50 [6] [µM] | GI50 [7] [µM] | GI50 [8] [µM] | GI50 [10] [µM] | GI50 [9] [µM]
c1ccc2c(c1)C1=NCCN1c1ccccc1-2 | 8.05 | 27.1 | 16.2 | 5.98 | 6.82 | 15.2 | 7.36 | 6.14 | 35.5 | 10 |  |  |  |  |  |  |  |  |  | 
O=C1OC(CN2CCOCC2)CN1/N=C/c1ccc([N+](=O)[O-])o1 (stereo unspecified) | > 100 | > 100 | > 100 | > 100 | 67.4 | > 100 | > 100 |  | > 100 | > 100 |  |  |  |  |  |  |  |  |  | 
CC(C)c1cc(OCC(O)CO)cc(C(C)C)c1 (stereo unspecified) | > 100 | > 100 | > 100 | > 100 | > 100 | > 100 | > 100 | > 100 | > 100 | > 100 |  |  |  |  |  |  |  |  |  | 
Cc1cccc2nc3cccc(C(=O)NCCN(C)C)c3nc12 | 2.96 | 15.3 | 5.27 | > 100 | 6.45 | 2.93 | 5.8 | 2.99 | 2.03 | 14.6 |  |  |  |  |  |  |  |  |  | 
Cc1nc(Nc2nc3ccccc3o2)nc(-c2cccc([N+](=O)[O-])c2)c1C(=O)Nc1ccc(F)c(Cl)c1 | 4.73 | > 100 | > 100 | 24.2 | 13.8 | > 100 | 81.7 | > 100 |  | > 100 | 2.03 | 1.92 | 2.32 | 2.34 | 1.02 | 3.83 | 2.42 | 2.83 | 3.18 | 
O=C(/C=C1/Nc2ccc([N+](=O)[O-])cc2NC1O)c1cccc([N+](=O)[O-])c1 (stereo unspecified) |  | > 100 | > 100 | > 100 | > 100 | > 100 | > 100 | 65.4 | > 100 | 47.8 |  |  |  |  |  |  |  |  |  | 
COc1ccc(OC)c(Nc2nc(-c3c(C)nc4sccn34)cs2)c1 | > 100 | > 100 | > 100 | > 100 | > 100 | > 100 | > 100 | > 100 |  | > 100 | > 100 | > 100 | 41.4 | > 100 | 92.7 | 58.9 | 38.6 | 36.3 | 32.3 | 
Cc1cc2c(cc1N)C(C)C1(CCC(=O)N2Cc2ccccc2)OCCO1 (stereo unspecified) | > 100 | > 100 | > 100 |  | > 100 | > 100 | > 100 |  | > 100 | > 100 |  |  |  |  |  |  |  |  |  | 
COC(=O)[C@@H](C)C[C@H](Cc1ccccc1)NC(=O)c1csc([C@@H](C[C@H](C(C)C)N(C)C(=O)[C@H](C)NC(=O)[C@H]2CCCCN2C)OC(C)=O)n1 | > 25 | > 25 | > 25 | > 25 | > 25 | > 25 |  | 24.2 | > 25 | > 25 | 0.929 | 8.67 | 0.901 | 1.05 | 0.551 | > 25 |  | 1 | 1.05 | 5.74
O=C1CC(c2ccc(Cl)cc2)Oc2ccccc21 (stereo unspecified) | 37.8 |  | 77.7 | 37.4 |  | > 100 | > 100 |  | 54.8 | 32.4 |  |  |  |  |  |  |  |  |  | 
COc1ccc(C2=CC(c3ccc(OC)c(OC)c3)c3c(c4ccccc4oc3=O)O2)cc1OC (stereo unspecified) | > 100 | > 100 | > 77.3 | > 100 |  | > 100 | > 100 |  | > 100 | 11.7 | 12.2 | 3.07 | 1.99 | 2.36 | 0.313 |  | 3.03 |  | 1.15 | 1.52
O=C1OC(OCC#CCOC2OC(=O)C(Cl)=C2Cl)C(Cl)=C1Cl (stereo unspecified) | 32.2 | 38.9 | 42.5 | 4.63 | 30.7 | 30.1 | 30.5 |  | 40.1 | 16.8 |  |  |  |  |  |  |  |  |  | 
C=C1[C@@H]([C@@]2(C)C=CC(=O)C(C)(C)[C@@H]2CC(=O)OC)CC[C@@]2(C)C(c3ccoc3)OC(=O)[C@H]3O[C@]132 (stereo partly specified) | > 100 | > 100 | > 100 | > 100 | > 100 | > 100 | > 100 |  | > 100 | > 100 |  |  |  |  |  |  |  |  |  | 
Cn1c(=O)c(Oc2ccc(F)cc2F)cc2cnc(NCCS(C)(=O)=O)nc21 | > 25 | > 25 | > 25 | > 25 | > 25 | > 25 | > 25 | > 25 |  | > 25 | > 25 | > 25 | > 25 | > 25 | > 25 | > 25 | > 25 | > 25 | > 25 | 
CCCNc1nc2ccccc2c2c1S(=O)(=O)c1ccc(Cl)cc1C2=O | > 50 | > 50 | > 50 | 3.98 | 3.1 | > 50 |  | 1.57 | > 50 | > 50 | 1.92 | 1.99 | 1.4 | 0.4 | 0.944 | 1.61 |  | 0.263 | 1.7 | 1.38
COc1ccc2nc(NC(=O)c3cccnc3Nc3cc(OC)c(OC)c(OC)c3)sc2c1 |  | 22 | 31.7 | > 100 | 21.5 | 21.3 | 20.6 | 8.85 | 55.6 | 19.7 |  | 7.38 | 15 | 20.1 | 8.92 | 7.88 | 6.47 | 2.6 | 5.6 | 11.5
O=S(=O)(NCCNc1nccc(-c2c(-c3ccc(F)cc3)nc3sccn23)n1)c1ccccc1 | 26.6 | > 100 | > 100 | > 100 | 76 | > 100 | > 100 |  |  | > 100 | 7.5 | 1.93 | 9.88 | 3.5 | 11.3 | 9.36 | 1.69 |  | 4.77 | 
